Data on 37 compounds can be found in patent US9056832B2, “Pyridine compounds and the users thereof” (Purdue Pharma L.P., priority 2010, dated 2015).

For one experiment, the target named is human Nav1.7 (Homo sapiens (Human), UniProt Q15858). Kind of experiment: FLIPR or FLIPR TETRA sodium dye assay with KCl and test article pre-incubation. Particulars: read-out: Nav1.7 IC50 (μM) ± SEM. It is filed as cell-based.
Sequence of human Nav1.7 (Q15858 other isoform, or with tags, fused parts or gaps): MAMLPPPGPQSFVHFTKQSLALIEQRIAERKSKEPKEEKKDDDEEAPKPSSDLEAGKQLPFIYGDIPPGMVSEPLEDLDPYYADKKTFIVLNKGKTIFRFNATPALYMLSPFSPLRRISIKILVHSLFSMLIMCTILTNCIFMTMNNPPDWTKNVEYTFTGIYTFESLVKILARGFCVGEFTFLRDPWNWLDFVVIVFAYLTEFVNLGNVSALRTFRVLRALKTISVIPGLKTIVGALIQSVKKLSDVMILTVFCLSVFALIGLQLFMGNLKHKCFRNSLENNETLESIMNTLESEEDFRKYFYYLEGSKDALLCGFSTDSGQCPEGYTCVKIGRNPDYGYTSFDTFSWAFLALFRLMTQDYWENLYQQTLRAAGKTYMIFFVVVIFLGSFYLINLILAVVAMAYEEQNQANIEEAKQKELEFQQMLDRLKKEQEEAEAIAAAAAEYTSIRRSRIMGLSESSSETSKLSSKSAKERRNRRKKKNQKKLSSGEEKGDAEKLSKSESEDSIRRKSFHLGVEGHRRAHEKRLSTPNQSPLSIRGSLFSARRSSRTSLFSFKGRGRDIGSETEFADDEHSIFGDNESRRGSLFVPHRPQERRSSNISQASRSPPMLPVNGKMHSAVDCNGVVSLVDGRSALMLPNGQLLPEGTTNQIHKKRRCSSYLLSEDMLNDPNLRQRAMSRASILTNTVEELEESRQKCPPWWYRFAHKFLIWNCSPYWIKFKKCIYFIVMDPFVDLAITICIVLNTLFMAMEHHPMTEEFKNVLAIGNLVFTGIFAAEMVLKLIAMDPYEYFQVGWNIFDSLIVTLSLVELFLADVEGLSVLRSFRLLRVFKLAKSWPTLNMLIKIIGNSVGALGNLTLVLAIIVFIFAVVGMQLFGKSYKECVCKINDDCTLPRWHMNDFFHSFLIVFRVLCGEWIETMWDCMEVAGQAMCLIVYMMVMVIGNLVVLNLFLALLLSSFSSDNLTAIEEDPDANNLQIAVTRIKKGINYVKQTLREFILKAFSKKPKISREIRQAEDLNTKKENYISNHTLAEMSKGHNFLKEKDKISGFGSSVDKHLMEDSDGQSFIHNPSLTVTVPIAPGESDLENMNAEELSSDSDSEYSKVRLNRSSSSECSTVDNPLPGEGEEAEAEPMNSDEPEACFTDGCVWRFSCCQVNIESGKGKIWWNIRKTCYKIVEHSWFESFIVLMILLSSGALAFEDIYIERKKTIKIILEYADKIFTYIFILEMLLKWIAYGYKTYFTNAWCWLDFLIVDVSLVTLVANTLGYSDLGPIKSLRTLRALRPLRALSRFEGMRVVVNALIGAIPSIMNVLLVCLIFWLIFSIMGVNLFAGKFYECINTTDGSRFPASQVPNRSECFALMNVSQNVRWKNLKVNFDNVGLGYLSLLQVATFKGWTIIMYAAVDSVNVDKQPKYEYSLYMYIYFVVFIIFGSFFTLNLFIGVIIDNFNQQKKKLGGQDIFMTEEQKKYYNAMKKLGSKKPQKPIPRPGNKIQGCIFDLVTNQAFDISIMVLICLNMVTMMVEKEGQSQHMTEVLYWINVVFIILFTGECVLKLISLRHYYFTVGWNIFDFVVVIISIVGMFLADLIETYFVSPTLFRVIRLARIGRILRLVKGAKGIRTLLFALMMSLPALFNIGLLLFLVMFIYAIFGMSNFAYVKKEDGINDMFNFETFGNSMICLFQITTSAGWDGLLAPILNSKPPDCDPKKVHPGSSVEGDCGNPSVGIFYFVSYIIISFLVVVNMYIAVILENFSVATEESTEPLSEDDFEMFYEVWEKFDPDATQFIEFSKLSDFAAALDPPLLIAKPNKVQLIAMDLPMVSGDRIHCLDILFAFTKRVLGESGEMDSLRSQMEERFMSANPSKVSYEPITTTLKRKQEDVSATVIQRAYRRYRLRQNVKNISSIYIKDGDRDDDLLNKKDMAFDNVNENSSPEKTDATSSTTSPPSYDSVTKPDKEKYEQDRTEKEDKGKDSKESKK
For the compound `NC(=O)c1cc(NCC2CCNCC2)cc(-c2ccc(Oc3ccc(F)cc3)cc2)n1` [compound 57, 6-(4-(4-fluorophenoxy)phenyl)-4-((piperidin-4-ylmethyl)amino) picolinamide], the IC50 – broadly, the concentration that gives 50% inhibition – was 0.83 ± 0.02 µM.
Same read-out and setting: then `NC(=O)c1cc(NCCN2CCNC2=O)cc(-c2ccc(Oc3ccc(F)cc3)cc2)n1` [compound 58, 6-(4-(4-fluorophenoxy)phenyl)-4-((2-(2-oxoimidazolidin-1-yl)ethyl)amino) picolinamide], with 1.57 ± 0.33 µM.
The same measure, in the same setting: then `NC(=O)c1cc(N2CCC(C(=O)O)CC2)cc(-c2ccc(Oc3ccc(F)cc3)cc2)n1` [compound 59, 1-(2-carbamoyl-6-(4-(4-fluorophenoxy)phenyl)pyridin-4-yl) piperidine-4-carboxylic acid], with 2.28 ± 0.2 µM; and `O=C1NCCN1CCNCCc1cccc(-c2ccc(Oc3ccc(F)cc3)cc2)n1` [compound 64, 1-(2-((2-(6-(4-(4-fluorophenoxy)phenyl)pyridin-2-yl)ethyl)amino)ethyl) imidazolidin-2-one], with 0.1 ± 0.3 µM; and `O=C1NCCN1CCNCc1cccc(-c2ccc(Oc3ncc(C(F)(F)F)cc3Cl)cc2)n1` [compound 66, 1-(2-(((6-(4-((3-chloro-5-(trifluoromethyl)pyridin-2-yl)oxy)phenyl)pyridin-2-yl)methyl)amino)ethyl) imidazolidin-2-one], with 0.13 ± 0.03 µM.
The same measure, in the same setting: then `N#Cc1cc(Oc2ccc(-c3cccc(CNCCN4CCNC4=O)n3)cc2)ccc1C(F)(F)F` [compound 70, 5-(4-(6-(((2-(2-oxoimidazolidin-1-yl)ethyl)amino)methyl)pyridin-2-yl)phenoxy)-2-(trifluoromethyl) benzonitrile], with 0.23 ± 0.08 µM; and `CS(=O)(=O)c1ccc(Oc2ccc(-c3cccc(CNCCN4CCNC4=O)n3)cc2)cc1` [compound 71, 1-(2-(((6-(4-(4-(methylsulfonyl)phenoxy)phenyl)pyridin-2-yl)methyl)amino)ethyl) imidazolidin-2-one], with 0.35 ± 0.05 µM.

The experiment is the same for the next values; noted with them: recombinant human Nav1.7 in HEK293 cells; CoroNa Green sodium dye; veratridine + scorpion venom; read-out: Nav1.7 IC50 (μM) ± SEM.
Take `NC(=O)c1cc(NCc2ncccn2)cc(-c2ccc(Oc3ccc(F)cc3)cc2)n1` [compound 49, 6-(4-(4-fluorophenoxy)phenyl)-4-((pyrimidin-2-ylmethyl)amino) picolinamide]: the half-maximal inhibitory concentration (IC50) came to 0.1 ± 0.03 µM.
On to `CS(=O)(=O)NCc1cc(C(N)=O)nc(-c2ccc(Oc3ccc(F)cc3)cc2)c1` [compound 50, 6-(4-(4-fluorophenoxy)phenyl)-4-(methylsulfonamido-methyl)picolinamide], for which the concentration for half-maximal inhibition (IC50) turned out to be 0.14 ± 0.03 µM.
The same measure, in the same setting: then `NC(=O)c1cc(CN2CCNCC2)cc(-c2ccc(Oc3ccc(F)cc3)cc2)n1` [compound 51, 6-(4-(4-fluorophenoxy)phenyl)-4-(piperazin-1-ylmethyl)picolinamide], with 0.18 ± 0.3 µM.
As for `NC(=O)CN1CCC(CNc2cc(C(N)=O)nc(-c3ccc(Oc4ccc(F)cc4)cc3)c2)CC1` [compound 52, 4-(((1-(2-amino-2-oxoethyl)piperidin-4-yl)methyl)amino)-6-(4-(4-fluorophenoxy)phenyl) picolinamide], the half-inhibitory concentration (IC50) is 0.2 ± 0.08 µM.
The same measure, in the same setting: to `NC(=O)c1cc(NCCN2CCOCC2)cc(-c2ccc(Oc3ccc(F)cc3)cc2)n1` [compound 53, 6-(4-(4-fluorophenoxy)phenyl)-4-((2-morpholinoethyl)amino) picolinamide] belongs 0.22 ± 0.06 µM.
On the same count and under the same terms, then `NC(=O)c1cc(NCCCn2ccnc2)cc(-c2ccc(Oc3ccc(F)cc3)cc2)n1` [compound 54, 4-((3-(1H-imidazol-1-yl)propyl)amino)-6-(4-(4-fluorophenoxy)phenyl) picolinamide], with 0.22 ± 0.06 µM; and `NC(=O)c1cc(N2CCNCC2)cc(-c2ccc(Oc3ccc(F)cc3)cc2)n1` [compound 55, 6-(4-(4-fluorophenoxy)phenyl)-4-(piperazin-1-yl) picolinamide], with 0.23 ± 0.06 µM; and `NC(=O)c1cc(N2CCC(C(N)=O)CC2)cc(-c2ccc(Oc3ccc(F)cc3)cc2)n1` [compound 56, 4-(4-carbamoylpiperidin-1-yl)-6-(4-(4-fluorophenoxy)phenyl) picolinamide], with 0.31 ± 0.05 µM.
With `NC(=O)c1cc(CNCCN2CCNC2=O)cc(-c2ccc(Oc3ccc(F)cc3)cc2)n1` [compound 60, 6-(4-(4-fluorophenoxy)phenyl)-4-(((2-(2-oxoimidazolidin-1-yl)ethyl)amino)methyl)picolinamide], the IC50 is 0.16 ± 0.03 µM.
Still for that read-out and setting: to `O=C1NCCN1CCNCc1cccc(-c2ccc(Oc3ccc(C(F)(F)F)cc3)cc2)n1` [compound 61, 1-(2-(((6-(4-(4-(trifluoromethyl)phenoxy)phenyl)pyridin-2-yl)methyl)amino)ethyl)imidazolidin-2-one] belongs 0.03 ± 0.01 µM.
On the same count and under the same terms, then `O=C1NCCN1CCNCc1cccc(-c2ccc(Oc3ccc(F)cc3)cc2)n1` [compound 62, 1-(2-(((6-(4-(4-fluorophenoxy)phenyl)pyridin-2-yl)methyl)amino)ethyl)imidazolidin-2-one], with 0.07 ± 0.02 µM; and `N#Cc1ccc(Oc2ccc(-c3cccc(CNCCN4CCNC4=O)n3)cc2)c(C(F)(F)F)c1` [compound 65, 4-(4-(6-(((2-(2-oxoimidazolidin-1-yl)ethyl)amino)methyl)pyridin-2-yl)phenoxy)-3-(trifluoromethyl) benzonitrile], with 0.12 ± 0.02 µM; and `N#Cc1ccc(Oc2ccc(-c3cccc(CNCCN4CCNC4=O)n3)cc2)cc1` [compound 67, 4-(4-(6-(((2-(2-oxoimidazolidin-1-yl)ethyl)amino)methyl)pyridin-2-yl)phenoxy)benzonitrile], with 0.17 ± 0.01 µM.
Same read-out and setting: then `N#CCN(CCN1CCNC1=O)Cc1cccc(-c2ccc(Oc3ccc(F)cc3)cc2)n1` [compound 69, 2-(((6-(4-(4-fluorophenoxy)phenyl)pyridin-2-yl)methyl) (2-(2-oxoimidazolidin-1-yl)ethyl)amino) acetonitrile], with 0.19 ± 0.05 µM; and `NC(=O)CN(CCN1CCNC1=O)Cc1cccc(-c2ccc(Oc3ccc(F)cc3)cc2)n1` [compound 72, 2-(((6-(4-(4-fluorophenoxy)phenyl)pyridin-2-yl)methyl)(2-(2-oxoimidazolidin-1-yl)ethyl)amino) acetamide], with 0.76 ± 0.03 µM; and `CC(C)NC(=O)N1CCN(c2cc(C(N)=O)nc(-c3ccc(Oc4ccc(F)cc4)cc3)c2)CC1` [compound 73, 4-(2-carbamoyl-6-(4-(4-fluorophenoxy)phenyl)pyridin-4-yl)-N-isopropylpiperazine-1-carboxamide], with 0.09 ± 0.03 µM.
Regarding `NC(=O)c1cc(N2CCN(c3ncccn3)CC2)cc(-c2ccc(Oc3ccc(F)cc3)cc2)n1` [compound 74, 6-(4-(4-fluorophenoxy)phenyl)-4-(4-(pyrimidin-2-yl)piperazin-1-yl) picolinamide], the IC50 worked out at 0.09 ± 0.01 µM.
For the compound `NC(=O)c1cc(N2CCN(C(N)=O)CC2)cc(-c2ccc(Oc3ccc(F)cc3)cc2)n1` [compound 76, 4-(2-carbamoyl-6-(4-(4-fluorophenoxy)phenyl)pyridin-4-yl) piperazine-1-carboxamide], the IC50 was 0.53 ± 0.07 µM.
As to `NC(=O)c1cc(N2CCN(C3=NCCCN3)CC2)cc(-c2ccc(Oc3ccc(F)cc3)cc2)n1` [compound 77, 6-(4-(4-fluorophenoxy)phenyl)-4-(4-(1,4,5,6-tetrahydropyrimidin-2-yl)piperazin-1-yl)picolinamide], the IC50 was determined as 4.27 ± 0.69 µM.
In the case of `O=C(c1cc(N2CCNCC2)cc(-c2ccc(Oc3ccc(F)cc3)cc2)n1)N1CCNCC1` [compound 78, (6-(4-(4-fluorophenoxy)phenyl)-4-(piperazin-1-yl)pyridin-2-yl) (piperazin-1-yl) methanone], the 50% inhibitory concentration (IC50) was 10 to 20 µM.
`O=C(NCCN1CCCCC1)c1cc(CO)cc(-c2ccc(Oc3ccc(F)cc3)cc2)n1` [compound 79, 6-(4-(4-fluorophenoxy)phenyl)-4-(hydroxymethyl)-N-(2-(piperidin-1-yl)ethyl)picolinamide]: the IC50 was found to be 0.41 ± 0.03 µM.
Same read-out and setting: then `N=C(N)N1CCN(c2cc(C(N)=O)nc(-c3ccc(Oc4ccc(F)cc4)cc3)c2)CC1` [compound 80, 4-(4-carbamimidoylpiperazin-1-yl)-6-(4-(4-fluorophenoxy)phenyl)picolinamide], with 1.3 ± 0.17 µM; and `NC(=O)c1cc(C(=O)NCCN2CCCCC2)nc(-c2ccc(Oc3ccc(F)cc3)cc2)c1` [compound 81, 6-(4-(4-fluorophenoxy)phenyl)-N2-(2-(piperidin-1-yl)ethyl)pyridine-2,4-dicarboxamide], with 1.46 ± 0.43 µM.
Still for that read-out and setting: then `CC(C)NC(=O)N1CCN(c2cc(C#N)nc(-c3ccc(Oc4ccc(F)cc4)cc3)c2)CC1` [compound 82, 4-(2-cyano-6-(4-(4-fluorophenoxy)phenyl)pyridin-4-yl)-N-isopropylpiperazine-1-carboxamide], with 1.94 ± 0.21 µM.
Take `N#Cc1cc(N2CCN(C(=N)N)CC2)cc(-c2ccc(Oc3ccc(F)cc3)cc2)n1` [compound 83, 4-(2-cyano-6-(4-(4-fluorophenoxy)phenyl)pyridin-4-yl) piperazine-1-carboximidamide]: the IC50 came out at 1.95 ± 0.52 µM.
The same measure, in the same setting: to `NC(=O)c1cc(NC(=O)Nc2ccccc2)cc(-c2ccc(Oc3ccc(F)cc3)cc2)n1` [compound 84, 6-(4-(4-fluorophenoxy)phenyl)-4-(3-phenylureido) picolinamide] belongs 4.11 ± 0.93 µM.
On to `O=C(O)c1cc(C(=O)NCCN2CCCCC2)nc(-c2ccc(Oc3ccc(F)cc3)cc2)c1` [compound 85, 2-(4-(4-fluorophenoxy)phenyl)-6-((2-(piperidin-1-yl)ethyl)carbamoyl)iso nicotinic acid], for which the IC50 came to 6.59 ± 2.17 µM.
For the compound `O=C(NCCN1CCCCC1)c1cc(-c2nnn[nH]2)cc(-c2ccc(Oc3ccc(F)cc3)cc2)n1` [compound 86, 6-(4-(4-fluorophenoxy)phenyl)-N-(2-(piperidin-1-yl)ethyl)-4-(1H-tetrazol-5-yl) picolinamide], the IC50 is 9.21 ± 1.15 µM.
Still for that read-out and setting: then `NC(=O)c1cc(NC(=O)NCC(=O)O)cc(-c2ccc(Oc3ccc(F)cc3)cc2)n1` [compound 87, 2-(3-(2-carbamoyl-6-(4-(4-fluorophenoxy)phenyl)pyridin-4-yl)ureido)acetic acid], with more than 20 µM; and `C[C@H](NCc1cccc(-c2ccc(Oc3ccc(F)cc3)cc2)n1)C(N)=O` [compound 88, (S)-2-({6-[4-(4-Fluoro-phenoxyl)-phenyl]-pyridin-2-yl-methyl}-amino) propionamide], with 0.23 ± 0.09 µM.
